Data: PMC7734590, “Identification of a Selective RelA Inhibitor Based on DSE-FRET Screening Methods” (International Journal of Molecular Sciences, 2020)
Where “and” joins values, the source holds several entries; their conditions need not be identical. Equal values may be shown once. Where a name gives a salt, the structure may show the parent alone. Read-outs that look alike come from different tables or passages of the source. Each block holds one compound with its values, some of them ahead of it.

Legend:
p52 = target: T1, p52 (Homo sapiens, UniProt Q00653); experiment: DSE-FRET p52–DNA binding inhibition; format: biochemical; set-up: p52 Retest % Inhibition Run2 / p52 Retest % Inhibition Avg. / Kinetic assay p52 Inhibition % ΔRFU(60 min-0 min) / p52 HTS % Inhibition / p52 Retest % Inhibition Run1: dose or concentration left out as unconfirmed; details: for p52 Retest % Inhibition Avg.: Retest average of Run1 and Run2
T1 sequence (Q00653 1-454 limits assumed): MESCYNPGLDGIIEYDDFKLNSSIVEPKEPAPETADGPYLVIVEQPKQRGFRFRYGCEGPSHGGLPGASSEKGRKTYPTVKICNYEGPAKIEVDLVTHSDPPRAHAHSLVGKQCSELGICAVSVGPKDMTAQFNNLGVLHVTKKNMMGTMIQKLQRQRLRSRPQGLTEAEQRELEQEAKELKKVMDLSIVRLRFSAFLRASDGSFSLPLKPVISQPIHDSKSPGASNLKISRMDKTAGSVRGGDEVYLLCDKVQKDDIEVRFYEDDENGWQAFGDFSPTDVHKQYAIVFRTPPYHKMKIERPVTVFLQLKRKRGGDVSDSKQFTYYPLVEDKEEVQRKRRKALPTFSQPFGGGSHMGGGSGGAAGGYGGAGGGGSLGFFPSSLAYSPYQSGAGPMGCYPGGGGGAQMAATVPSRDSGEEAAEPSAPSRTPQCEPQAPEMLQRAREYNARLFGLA

RelA = RelA (Homo sapiens, UniProt Q04206); experiment: DSE-FRET RelA–DNA binding inhibition; format: biochemical; set-up: Kinetic assay RelA Inhibition % ΔRFU(60 min-0 min) / RelA HTS % Inhibition / RelA Retest % Inhibition Run1 / RelA Retest % Inhibition Run2 / RelA Retest % Inhibition Avg. / Kinetic assay RelA % Inhibition ΔRFU(60 min-0 min): dose or concentration left out as unconfirmed
Chain of RelA (Q04206 19-306 limits assumed): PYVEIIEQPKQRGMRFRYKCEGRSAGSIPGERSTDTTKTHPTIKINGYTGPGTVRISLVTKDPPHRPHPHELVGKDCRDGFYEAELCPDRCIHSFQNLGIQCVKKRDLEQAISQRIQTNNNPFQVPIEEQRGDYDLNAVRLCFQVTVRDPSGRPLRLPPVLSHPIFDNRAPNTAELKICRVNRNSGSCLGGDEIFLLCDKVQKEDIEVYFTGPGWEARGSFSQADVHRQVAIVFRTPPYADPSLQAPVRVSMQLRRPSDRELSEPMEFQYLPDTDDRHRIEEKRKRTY

Structure (SMILES): CC(=O)Oc1cccc2c1C(=O)c1c(OC(C)=O)cc(C(=O)O)cc1C2=O [DIACERIN]
Kinetic assay p52 % Inhibition ΔRFU(60 min-0 min) (p52; kinetic assay, 60 min-0 min): 2.21%
Kinetic assay RelA % Inhibition ΔRFU(60 min-0 min) (RelA; kinetic assay, 60 min-0 min): 3%

Kinetic assay p52 % Inhibition ΔRFU(60 min-0 min) (p52; kinetic assay, 60 min-0 min): -1.17%
Kinetic assay RelA % Inhibition ΔRFU(60 min-0 min) (RelA; kinetic assay, 60 min-0 min): -1.49%
Structure (SMILES): OCCN(CCO)c1nc(N2CCCCC2)c2nc(N(CCO)CCO)nc(N3CCCCC3)c2n1 [DIPYRIDAMOLE]

Structure (SMILES): COc1cccc2c1C(=O)c1c(O)c3c(c(O)c1C2=O)C[C@@](O)(C(=O)CO)C[C@@H]3O[C@H]1C[C@H](N)[C@H](O)[C@H](C)O1 [DOXORUBICIN]
Kinetic assay p52 % Inhibition ΔRFU(60 min-0 min) (p52; kinetic assay, 60 min-0 min): -16%
Kinetic assay RelA % Inhibition ΔRFU(60 min-0 min) (RelA; kinetic assay, 60 min-0 min): -14%

Structure (SMILES): COc1cccc2c1C(=O)c1c(O)c3c(c(O)c1C2=O)C[C@@](O)(C(C)=O)C[C@@H]3O[C@H]1C[C@H](N)[C@H](O)[C@H](C)O1 [Daunomycin]
inhibition at 5 µg/mL (p52; HTS, 5 µg/mL, NPDepo hits, read-out: p52 HTS % Inhibition @ 5 µg/mL): 77.8%
inhibition at 5 µg/mL (p52; Retest Run1, 5 µg/mL, read-out: p52 Retest % Inhibition @ 5 µg/mL Run1): 92.7%
inhibition at 5 µg/mL (p52; Retest Run2, 5 µg/mL, read-out: p52 Retest % Inhibition @ 5 µg/mL Run2): 99%
inhibition at 5 µg/mL (p52; Retest average of Run1 and Run2, 5 µg/mL, read-out: p52 Retest % Inhibition @ 5 µg/mL Avg.): 95.9%
inhibition at 5 µg/mL (p52; kinetic assay, 5 µg/mL, ΔRFU 60 min-0 min, read-out: Kinetic assay @ 5 µg/mL p52 Inhibition % ΔRFU(60 min-0 min)): -4.66%

Structure (SMILES): COc1cccc2c1C(=O)c1c(O)c3c(c(O)c1C2=O)C[C@@](O)(C(C)=O)C[C@@H]3O[C@H]1C[C@H](N)[C@H](O)[C@H](C)O1 [Daunorubicin hydrochloride]
Kinetic assay p52 % Inhibition ΔRFU(60 min-0 min) (p52; kinetic assay, 60 min-0 min): -16% and -18%

Structure (SMILES): COc1cccc2c1C(=O)c1c(O)c3c(c(O)c1C2=O)C[C@@](O)(C(C)=O)C[C@@H]3O[C@H]1C[C@H](N)[C@H](O)[C@H](C)O1 [Daunorubicin(Daunomycin)]
p52 HTS % Inhibition (p52; HTS, NPDepo hits): 78.5%
p52 Retest % Inhibition Run1 (p52): 79.2%
p52 Retest % Inhibition Run2 (p52): 84.3%
p52 Retest % Inhibition Avg. (p52): 81.7%
Kinetic assay p52 Inhibition % ΔRFU(60 min-0 min) (p52; kinetic assay, ΔRFU 60 min-0 min): -7%

Structure (SMILES): CC(=O)Oc1cccc2c1C(=O)c1c(OC(C)=O)cc(C(=O)O)cc1C2=O [Diacerein]
inhibition at 10 µM (p52; HTS, known drugs, 10 µM, read-out: p52 HTS % Inhibition @ 10 µM): 72.2%
inhibition at 10 µM (p52; kinetic assay, 60 min-0 min, 10 µM, read-out: Kinetic assay @ 10 µM p52 % Inhibition ΔRFU(60 min-0 min)): 3%
inhibition at 10 µM (p52; retest, Run1, 10 µM, read-out: p52 Retest % Inhibition @ 10 µM Run1): 46.8%
inhibition at 10 µM (p52; retest, Run2, 10 µM, read-out: p52 Retest % Inhibition @ 10 µM Run2): 54%
inhibition at 10 µM (p52; retest, average of Run1 and Run2, 10 µM, read-out: p52 Retest % Inhibition @ 10 µM Avg.): 50.4%
inhibition at 10 µM (RelA; HTS, known drugs, 10 µM, read-out: RelA HTS % Inhibition @ 10 µM): 97.4%
inhibition at 10 µM (RelA; kinetic assay, 60 min-0 min, 10 µM, read-out: Kinetic assay @ 10 µM RelA % Inhibition ΔRFU(60 min-0 min)): 4%
inhibition at 10 µM (RelA; retest, Run1, 10 µM, read-out: RelA Retest % Inhibition @ 10 µM Run1): 51.6%
inhibition at 10 µM (RelA; retest, Run2, 10 µM, read-out: RelA Retest % Inhibition @ 10 µM Run2): 57.2%
inhibition at 10 µM (RelA; retest, average of Run1 and Run2, 10 µM, read-out: RelA Retest % Inhibition @ 10 µM Avg.): 54.4%

Structure (SMILES): COc1cccc2c1C(=O)c1c(O)c3c(c(O)c1C2=O)C[C@@](O)(C(=O)CO)C[C@@H]3O[C@H]1C[C@H](N)[C@H](O)[C@H](C)O1 [Doxorubicin]
inhibition at 5 µg/mL (RelA; HTS, 5 µg/mL, NPDepo hits, read-out: RelA HTS % Inhibition @ 5 µg/mL): 70.5%
inhibition at 5 µg/mL (RelA; Retest Run1, 5 µg/mL, read-out: RelA Retest % Inhibition @ 5 µg/mL Run1): 69.2%
inhibition at 5 µg/mL (RelA; Retest Run2, 5 µg/mL, read-out: RelA Retest % Inhibition @ 5 µg/mL Run2): 78.3%
inhibition at 5 µg/mL (RelA; Retest average of Run1 and Run2, 5 µg/mL, read-out: RelA Retest % Inhibition @ 5 µg/mL Avg.): 73.8%
inhibition at 5 µg/mL (RelA; kinetic assay, 5 µg/mL, ΔRFU 60 min-0 min, read-out: Kinetic assay @ 5 µg/mL RelA Inhibition % ΔRFU(60 min-0 min)): -12%

Kinetic assay @ 50 µM p52 Inhibition % ΔRFU(120 min-0 min) (p52; 96 well plate, 50 µM, 120 min-0 min): 73%
p52 HTS % Inhibition (p52; HTS, known drugs): 4.7%
p52 Retest % Inhibition Run1 (p52): 4.9%
p52 Retest % Inhibition Run2 (p52): 5.3%
p52 Retest % Inhibition Avg. (p52): 5.1%
Kinetic assay p52 % Inhibition ΔRFU(60 min-0 min) (p52; kinetic assay, 60 min-0 min): 7%
Structure (SMILES): Cc1ccc(C(=O)Nc2ccc(S(=O)(=O)[O-])c3cc(S(=O)(=O)[O-])cc(S(=O)(=O)[O-])c23)cc1NC(=O)c1cccc(NC(=O)Nc2cccc(C(=O)Nc3cc(C(=O)Nc4ccc(S(=O)(=O)[O-])c5cc(S(=O)(=O)[O-])cc(S(=O)(=O)[O-])c45)ccc3C)c2)c1.[Na+].[Na+].[Na+].[Na+].[Na+].[Na+] [Suramin hexasodium salt]

suppression of p52–DNA binding (p52; HTS, 10 µM or 5 µg/mL): less than 10%
Structure (SMILES): Cc1ccc(C(=O)Nc2ccc(S(=O)(=O)O)c3cc(S(=O)(=O)O)cc(S(=O)(=O)O)c23)cc1NC(=O)c1cccc(NC(=O)Nc2cccc(C(=O)Nc3cc(C(=O)Nc4ccc(S(=O)(=O)O)c5cc(S(=O)(=O)O)cc(S(=O)(=O)O)c45)ccc3C)c2)c1 [Suramin, reference compound]
p52–DNA binding inhibition at 50 µM (p52; 96-well plates, 50 µM): inhibited both RelA–DNA and p52–DNA binding
